Assay results reported in ChEMBL document CHEMBL4619755 (J Nat Prod, 2020).
Activity calls are given as the source filed them. The calls are words filed in the database; no cut-off is given here.

Assays:
THP-1 [1] = test: Inhibition of TNF-alpha secretion in LPS-stimulated human THP1 cells assessed as TNF-alpha level at 10 uM incubated for 1 hr followed by nigericin addition and measured after 1 hr by ELISA (reference value: 957.6 pg/mL); assay type: functional
[2] = Cytotoxicity against human THP1 cells assessed as cell viability at 0.1 to 100 uM after 24 hrs in presence of LPS by CellTiter-Glo luminescent cell viability assay relative to control; assay type: cell-based; details: THP-1 cells, read-out: Activity
THP-1 [3] = test: Antiinflammatory activity in LPS-induced human THP1 cells assessed as IL-1beta secretion at 10 uM incubated for 1 hr followed by LPS stimulation and measured after 24 hrs by ELISA (reference value: 51.2 pg/mL); assay type: functional
[4] = biological target: NACHT, LRR and PYD domains-containing protein 3 (Homo sapiens) (UniProt Q96P20); test: Inhibition of NLRP3 inflammasome activation in LPS-stimulated human THP1 cells assessed as reduction in IL-1beta secretion at 1 uM incubated for 1 hr followed by nigericin addition and measured after 1 hr by ELISA relative to control; assay type: cell-based; details: THP-1
Chain of NACHT, LRR and PYD domains-containing protein 3 (Homo sapiens) (Q96P20 whole entry, the tested form may be a part): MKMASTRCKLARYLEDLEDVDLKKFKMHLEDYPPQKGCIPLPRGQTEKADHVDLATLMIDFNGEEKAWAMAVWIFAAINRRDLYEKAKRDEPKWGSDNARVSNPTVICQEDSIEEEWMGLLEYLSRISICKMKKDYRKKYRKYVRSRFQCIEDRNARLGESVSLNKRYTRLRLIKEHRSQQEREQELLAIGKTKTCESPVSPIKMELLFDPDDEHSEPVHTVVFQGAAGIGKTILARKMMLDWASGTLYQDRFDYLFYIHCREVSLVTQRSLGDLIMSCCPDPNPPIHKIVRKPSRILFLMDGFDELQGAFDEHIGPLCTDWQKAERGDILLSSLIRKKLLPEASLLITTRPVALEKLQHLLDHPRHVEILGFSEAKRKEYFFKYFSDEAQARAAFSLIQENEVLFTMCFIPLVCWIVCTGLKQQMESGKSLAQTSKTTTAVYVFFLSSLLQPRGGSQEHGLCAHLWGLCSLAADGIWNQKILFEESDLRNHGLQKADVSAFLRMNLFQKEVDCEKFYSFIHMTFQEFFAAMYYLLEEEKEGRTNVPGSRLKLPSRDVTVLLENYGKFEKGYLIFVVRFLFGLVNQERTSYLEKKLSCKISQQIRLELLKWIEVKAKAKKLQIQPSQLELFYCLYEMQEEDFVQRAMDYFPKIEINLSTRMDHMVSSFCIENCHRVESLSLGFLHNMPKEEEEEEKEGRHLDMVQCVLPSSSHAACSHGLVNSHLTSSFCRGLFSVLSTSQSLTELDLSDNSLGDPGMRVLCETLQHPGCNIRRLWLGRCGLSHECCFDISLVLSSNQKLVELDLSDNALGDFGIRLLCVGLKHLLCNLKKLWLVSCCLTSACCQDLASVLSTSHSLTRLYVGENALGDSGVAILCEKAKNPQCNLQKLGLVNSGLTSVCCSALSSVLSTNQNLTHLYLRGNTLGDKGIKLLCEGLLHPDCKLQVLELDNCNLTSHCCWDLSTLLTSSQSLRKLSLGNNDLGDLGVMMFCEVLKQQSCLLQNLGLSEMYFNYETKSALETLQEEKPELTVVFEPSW

[5] = biological target: T1, P2X purinoceptor 7 (Homo sapiens) (UniProt Q99572); test: Modulation of P2X7 receptor in LPS-stimulated human THP1 cells assessed as LPS-nigericin-stimulated intracellular potassium efflux at 1 uM incubated for 1 hr followed by nigericin challenge and measured after 1 hr by Green-2 AM dye based flow cytometric analysis (reference value: 29%); assay type: cell-based; details: THP-1
T1 sequence (whole entry): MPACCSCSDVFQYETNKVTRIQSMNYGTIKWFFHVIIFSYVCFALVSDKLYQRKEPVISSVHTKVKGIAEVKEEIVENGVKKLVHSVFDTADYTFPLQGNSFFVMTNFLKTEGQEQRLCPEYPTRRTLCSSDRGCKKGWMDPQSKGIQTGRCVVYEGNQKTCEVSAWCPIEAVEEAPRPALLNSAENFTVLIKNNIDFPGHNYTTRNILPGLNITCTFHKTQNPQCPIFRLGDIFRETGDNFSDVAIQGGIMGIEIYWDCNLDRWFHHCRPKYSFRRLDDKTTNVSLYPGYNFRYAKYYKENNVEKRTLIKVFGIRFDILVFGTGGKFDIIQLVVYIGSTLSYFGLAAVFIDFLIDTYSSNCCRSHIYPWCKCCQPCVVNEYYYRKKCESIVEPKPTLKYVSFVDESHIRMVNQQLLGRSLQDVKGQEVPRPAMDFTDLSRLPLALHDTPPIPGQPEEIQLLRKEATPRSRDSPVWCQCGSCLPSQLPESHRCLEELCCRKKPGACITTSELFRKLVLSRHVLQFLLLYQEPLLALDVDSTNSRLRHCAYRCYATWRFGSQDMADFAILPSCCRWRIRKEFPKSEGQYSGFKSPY

[6] = Cytotoxicity against human THP1 cells assessed as cell viability at 0.1 uM after 24 hrs by CellTiter-Glo luminescent cell viability assay relative to control; assay type: cell-based; details: THP-1 cells, read-out: Activity
[7] = biological target: T1, P2X purinoceptor 7 (Homo sapiens); test: Modulation of P2X7 receptor in LPS-stimulated human THP1 cells assessed as LPS-nigericin-stimulated intracellular potassium efflux at 10 uM incubated for 1 hr followed by nigericin challenge and measured after 1 hr by Green-2 AM dye based flow cytometric analysis (reference value: 29%); assay type: cell-based; details: THP-1
[8] = Cytotoxicity against human THP1 cells assessed as cell viability at 100 uM after 24 hrs by CellTiter-Glo luminescent cell viability assay relative to control; assay type: cell-based; details: THP-1 cells, read-out: Activity
[9] = Cytotoxicity against human THP1 cells assessed as cell viability at 10 uM after 24 hrs by CellTiter-Glo luminescent cell viability assay relative to control; assay type: cell-based; details: THP-1 cells, read-out: Activity
[10] = biological target: T1, P2X purinoceptor 7 (Homo sapiens); test: Modulation of P2X7 receptor in nigericin-stimulated human THP1 cells assessed as intracellular potassium efflux at 10 uM incubated for 30 mins followed by 10 uM nigericin challenge and measured after 30 mins by Green-2 AM dye based flow cytometric analysis (reference value: 27.1%); assay type: cell-based; details: THP-1
[11] = biological target: NACHT, LRR and PYD domains-containing protein 3 (Homo sapiens) (UniProt Q96P20); test: Inhibition of NLRP3 inflammasome activation in LPS-stimulated human THP1 cells assessed as reduction in IL-1beta secretion at 0.1 uM incubated for 1 hr followed by nigericin addition and measured after 1 hr by ELISA relative to control; assay type: cell-based; details: THP-1
[12] = biological target: T1, P2X purinoceptor 7 (Homo sapiens); test: Modulation of P2X7 receptor in nigericin-stimulated human THP1 cells assessed as intracellular potassium efflux at 10 uM incubated for 30 mins followed by 1 uM nigericin challenge and measured after 30 mins by Green-2 AM dye based flow cytometric analysis (reference value: 27.1%); assay type: cell-based; details: THP-1
[13] = Cytotoxicity against human THP1 cells assessed as cell viability at 1 uM after 24 hrs by CellTiter-Glo luminescent cell viability assay relative to control; assay type: cell-based; details: THP-1 cells, read-out: Activity
THP-1 [14] = test: Antiinflammatory activity in human THP1 cells assessed as reduction in LPS-induced IL-1beta secretion at 0.1 to 10 uM incubated for 1 hr followed by LPS stimulation and measured after 24 hrs by ELISA; assay type: functional, cell-based
THP-1 [15] = test: Modulation of intracellular calcium release in LPS-stimulated human THP1 cells at 1 to 100 uM incubated for 1 hr followed by nigericin challenge and measured after 1 hr by Fluo-3dye based flow cytometric analysis; assay type: functional, cell-based
[16] = biological target: NACHT, LRR and PYD domains-containing protein 3 (Homo sapiens) (UniProt Q96P20); test: Inhibition of NLRP3 inflammasome activation in LPS-stimulated human THP1 cells assessed as reduction in IL-1beta secretion at 10 uM incubated for 1 hr followed by nigericin addition and measured after 1 hr by ELISA relative to control; assay type: cell-based; details: THP-1
[17] = biological target: T1, P2X purinoceptor 7 (Homo sapiens); test: Modulation of P2X7 receptor in nigericin-stimulated human THP1 cells assessed as intracellular potassium efflux at 10 uM incubated for 30 mins followed by 5 uM nigericin challenge and measured after 30 mins by Green-2 AM dye based flow cytometric analysis (reference value: 27.1%); assay type: cell-based; details: THP-1

CC(C)(O)c1coc(S(=O)(=O)NC(=O)Nc2c3c(cc4c2CCC4)CCC3)c1
Activity (THP-1 [1]): 957.6 pg/mL

C=C(C)[C@@H]1CCC(C)=C[C@H]1c1c(O)cc(CCCCC)cc1O [CANNABIDIOL]
Activity (THP-1 [1]): 661.9 pg/mL | viability at 24 h, up to 100 µM [2]: > 97% | Activity (THP-1 [3]): 32.9 pg/mL | inhibition [4]: 64.1% | Activity [5]: 20% | viability at 24 h, 0.1 µM [6]: 96.5% | Activity [7]: 16% | viability at 24 h, 100 µM [8]: 99.9% | viability at 24 h, 10 µM [9]: 103% | Activity [10]: 12.4% | inhibition [11]: 63.9% | Activity [12]: 16.1% | viability at 24 h, 1 µM [13]: 97.6% | Activity (THP-1 [14]): inactive | Activity (THP-1 [15]): inactive | inhibition [16]: 83.1% | Activity [17]: 13.1%

C=C1C(=O)[C@]23[C@H](O)[C@H]1CC[C@H]2[C@@]12CO[C@]3(O)[C@@H](O)[C@@H]1C(C)(C)CC[C@@H]2O [ORIDONIN]
Activity (THP-1 [1]): 777.2 pg/mL
